Columns and labels:
HT-1376 cells = assay: Flow cytometry of apoptotic and necrotic cells (Annexin V-FITC/PI); type: cell-based, human; parameters: unit not given here; conditions: 48 h, alone or combined
Experimental: Flow cytometry was used to evaluate the quantity of apoptotic or necrotic cells. Fluorescein isothiocyanate (Annexin V-FITC) combined with propidium iodide (PI) was used as marker; the apoptotic cells were Annexin V-FITC positive and PI negative, and the necrotic cells were Annexin V-FITC positive and PI positive. The cells were labelled by incubating them with Annexin V-FITC (Diagnostics MedSystems) and PI (Sigma) in a binding buffer (10 mM HEPES, pH 7.4, 150 mM NaCl, 5 mM KCl, 1 mM MgCl2, 2.5 mM CaCl2) for 10 min at ambient temperature, and then washing and resuspending the cell material in the same buffer. The apoptotic and necrotic cells were analysed by flow cytometry (FACScan, Becton-Dickinson), acquiring an average of 2×10^4 events per sample, with determinations in triplicate on three separate experiments.

[1] = tested on: human bladder carcinoma cell line HT-1376; assay: Inhibition of growth of bladder cancer cells and polysaccharide-antitumoral synergism; type: cell-based; conditions: HT-1376, after 72 h, product taken individually
Experimental: Human bladder cancer cell lines HT-1376 were used as system model, evaluating the ability of different combinations of GEM or MCC and C or CS to inhibit growth.
Human bladder carcinoma cell line HT-1376 (American Type Tissue Cultures Collection, Rockville, Md.) was cultured in DMEM supplemented with heat inactivated 10% foetal bovine serum (FBS), 20 mM 4,2-hydroxyethyl-1-piperazinyl-ethanesulphonic acid (HEPES), 100 U/mL penicillin, 100 µg/mL streptomycin, 1% w/v sodium L-glutamine and 1% w/v pyruvate. The cells were cultured in a humidified atmosphere comprising 95% air/5% CO2 at 37° C. For the study of synergism between C or CS and MMC or GEM in inhibiting the growth of HT-1376, the cells were seeded in 96-well plates at a density of 6*10^3 cells/well. After 24 hours' incubation at 37° C. the cells were treated with different concentrations of C or CS or GEM or MMC, and polysaccharide-antitumoral combinations thereof. The evaluation of polysaccharide-antitumoral synergism was based on analysis after 72 hours' treatment of the fraction curves of the surviving cells versus the concentration of antitumoral, conducted with the Calcusyn computer program (Biosoft, Ferguson, Mo.). The combination index values (CI) of <1, 1 and >1 indicate synergy, additivity and antagonism respectively in the polysaccharide-antitumoral interaction.

GRP78 = assay: Western blotting protein expression of GRP78 in IL-1β-treated human chondrocytes; type: cell-based; conditions: densitometric analysis of Western blotting versus tubulin; control = 1
Experimental: (§1) In a standard experiment, 10^4 cells were seeded per well of a 24-well multiwell plate, and after 5 days, when confluency was reached, the cells were starved for 24 hours (incubation in DMEM with 0.5% FBS). The cells were then treated for 2 h with 1% w/v of chondroitin (C) or chondroitin sulphate (CS) (endotoxin content ≤0.1 EU/mg), in DMEM without FBS; the control was maintained under the same conditions, but without the addition of C or CS. IL-1 β at the concentration of 10 ng/mL was then added to the cultures. After 24 h hours' incubation the cells were recovered and the RNA was extracted from them with Trizol Reagent, as described in the kit manual (Life Technologies Ltd, Milan Italy). The gene expression values are confirmed by the protein expression data obtained in Western blotting by densitometric analysis of the GRP78 protein bands and SOD2 compared with the constitutive tubulin gene (Table 6)

SOD-2 [2] = assay: Real-Time PCR gene expression of SOD-2 in IL-1β-treated human chondrocytes; type: cell-based; conditions: 2 h pre-treatment 1% w/v, IL-1β 10 ng/mL 24 h; untreated cells taken as 1
Text: The objective of the study was to evaluate the effects of chondroitin or chondroitin sulphate on gene expression of GRP78 and SOD-2 in human chondrocytes, after treatment with the pro-inflammatory cytokine IL-1β.
Human chondrocytes extracted from nasal cartilage treated with IL-1β, a pro-inflammatory cytokine which acts as mediator in the activation of the biological mechanisms underlying the onset of OA, were used in the study. In particular, the modulation of two markers involved in the manifestation of the inflammatory state, chaperonin GRP78 and the enzyme superoxide dismutase (SOD-2), was evaluated.
as §1, with “The gene expression values are confirmed by the protein expression data obtained in Western blotting by densitometric analysis of the GRP78 protein bands and SOD2 compared with the constitutive tubulin gene (Table 6)” left out

SOD-2 [3] = assay: Western blotting protein expression of SOD-2 in IL-1β-treated human chondrocytes; type: cell-based; conditions: densitometric analysis of Western blotting versus tubulin; control = 1
Experimental: as §1

[4] = tested on: volunteers suffering from dry eye; assay: Ophthalmic eyedrops in volunteers suffering from dry eye; type: in vivo, human
Experimental: Two ophthalmic preparations were compared: a conventional one based on hyaluronic acid and one based on chondroitin, both at the concentration of 3% w/v in NaCl saline solution at pH 7.4. The eyedrops were prepared in single-dose packaging sterilised in the autoclave. […] The volunteers, of both sexes, aged between 45 and 60 years, were randomised into two groups of 15, and treated with the two types of eyedrops. Under medical control the inflammatory state of the corneal surface was evaluated at the beginning and end of the treatment, and the evaluations of the treated patients relating to tolerability, duration of the wetting effect, and visual alteration after application, were recorded. A scale of 1 to 5 was used for the clinical evaluations and the patients' evaluations, where 5 represents optimum resolution of the pathological condition and its sequelae. […]

[5] = tested on: volunteers suffering from severe impairment of the knee joint; assay: Viscosupplementation and cartilage repair in volunteers with knee joint impairment; type: in vivo, human
Experimental: The aim of the study was to evaluate the therapeutic potential of the hyaluronic acid-chondroitin combination (HA-C) in joint disease associated with damage to the cartilaginous component of the joint. The study was conducted on 30 volunteers suffering from severe impairment of the knee joint, with damage to the cartilaginous component, evident ongoing inflammatory symptoms, swelling and pain. The volunteers, aged between 25 and 45 years, of both sexes, were randomised into three groups of 10; the control group was treated with saline, the HA group with hyaluronic acid and the HA-C group with a mixture of hyaluronic acid and chondroitin. The viscosupplementation treatment was performed 3 times at 2-month intervals by injecting into the joint 2 mL of a sterile, pyrogen-free solution consisting of a saline solution (0.9% NaCl) for the control group, a 20 mg/mL solution of hyaluronic acid 1,200 KDa for the HA group and a 20 mg/mL solution of hyaluronic acid 1,200 KDa+20 mg/mL of chondroitin for the HA-C group. Before and at the end of the 6-month study the volunteers underwent an X-ray and MRI scan of the joint. Three orthopaedic surgeons independently evaluated the development of the pathological symptoms (pain, inflammatory state and swelling), and repair of cartilage damage, over time (before treatment, and after 3 and 6 months), on a scale of 1 to 5 (where 1 represents absence of healing, and 5 indicates total remission of the pathological symptoms and complete repair of the damage to the cartilage tissue).

[6] = 0.04 μg/mL of C or CS and 0.15 μg/mL of GEM
[7] = 5.7 μg/mL of C or CS and 1.7 μg/mL of MMC

Nc1ccn([C@@H]2O[C@H](CO)[C@@H](O)C2(F)F)c(=O)n1 [GEM, gemcitabine]
Cell state: apoptotic advanced (HT-1376 cells; [6]): 2 ± 1
Cell state: apoptotic early (HT-1376 cells; [6]): 1 ± 1
Cell state: necrotic (HT-1376 cells; [6]): 16 ± 3
Cell state: viable (HT-1376 cells; [6]): 81 ± 3
IC50 ([1]; Homo sapiens, read-out: IC50 (50% inhibition of growth)): 0.5 mg/L

IL-1β: pro-inflammatory cytokine, 10 ng/mL, positive control
Protein expression value of GRP78 (GRP78): 1.15 ± 0.15
gene expression of SOD-2 (SOD-2 [2]): 22 ± 4
Protein expression value of SOD-2 (SOD-2 [3]): 1.96 ± 0.20

hyaluronic acid [HA, reference compound]
Doctor: corneal inflammation ([4]; 0 days, 3% w/v eyedrops, scale of 1 to 5, 5 optimum): 1.0 ± 0.1
Patient: absence of visual alteration ([4]; 10 days, scale of 1 to 5): 3.5 ± 0.2
Patient: tolerability ([4]; 10 days, scale of 1 to 5): 3.8 ± 0.2
Patient: wetting effect ([4]; 10 days, scale of 1 to 5): 4.0 ± 0.2
Patient: absence of visual alteration ([4]; 20 days, scale of 1 to 5): 3.2 ± 0.1
Patient: tolerability ([4]; 20 days, scale of 1 to 5): 3.7 ± 0.3
Patient: wetting effect ([4]; 20 days, scale of 1 to 5): 4.1 ± 0.3
Doctor: corneal inflammation ([4]; 30 days, 3% w/v eyedrops 4 times a day, scale of 1 to 5): 3.5 ± 0.2
Patient: absence of visual alteration ([4]; 30 days, scale of 1 to 5): 3.6 ± 0.2
Patient: tolerability ([4]; 30 days, scale of 1 to 5): 3.9 ± 0.3
Patient: wetting effect ([4]; 30 days, scale of 1 to 5): 4.4 ± 0.3
Cartilage repair ([5]; 0 months, scale of 1 to 5): 1.0 ± 0.1
Inflammation ([5]; 0 months, scale of 1 to 5): 1.3 ± 0.2
Swelling ([5]; 0 months, scale of 1 to 5): 1.2 ± 0.1
Pain ([5]; 0 months, scale of 1 to 5, 5 total remission): 1.6 ± 0.2
Cartilage repair ([5]; 3 months, scale of 1 to 5): 1.5 ± 0.2
Inflammation ([5]; 3 months, scale of 1 to 5): 3.1 ± 0.2
Pain ([5]; 3 months, scale of 1 to 5): 3.1 ± 0.4
Swelling ([5]; 3 months, scale of 1 to 5): 3.1 ± 0.3
Inflammation ([5]; 6 months, scale of 1 to 5): 4.1 ± 0.5
Pain ([5]; 6 months, scale of 1 to 5): 4.0 ± 0.3

CO[C@@]12[C@H](COC(N)=O)C3=C(C(=O)C(C)=C(N)C3=O)N1C[C@@H]1N[C@@H]12 [MMC, mitomycin-C]
Cell state: apoptotic advanced (HT-1376 cells; [7]): 2 ± 1
Cell state: apoptotic early (HT-1376 cells; [7]): 1 ± 1
Cell state: necrotic (HT-1376 cells; [7]): 33 ± 1
Cell state: viable (HT-1376 cells; [7]): 64 ± 5
IC50 (50% inhibition of growth) [1]: 18 μ/mL

— patent publication US10206944B2, “Chondroitin for use in medicine” (ALTERGON S.A., priority 2012, dated 2019)
